According to US20160228575A1, “NARINGENIN COMPLEXES AND METHODS OF USE THEREOF” (THE GENERAL HOSPITAL CORPORATION, priority 2008, published 2016):

Tests used:
[1] = system: HCV (JFH-1) infection of naïve Huh7.5.1 cells; assay: HCV infectivity of cell culture supernatant on naïve Huh7.5.1 cells; assay type: cell-based, Hepatitis C virus
Description: The infectivity of the secreted HCV particles was measured as previously described (8). Naïve Huh7.5.1 cells were grown to 80% confluence and exposed to cell culture supernatants diluted 10-fold in culture media. Following 1 hour incubation at 37° C., the media was replaced, and the cells were cultured for 3 additional days. Levels of HCV infection were determined by immunofluorescence staining for HCV core protein. The viral titer is expressed as focus forming units per milliliter of supernatant (ffu/ml).

ApoB = ApoB secretion by JFH-1 infected Huh-7.5.1 cells (human ApoB ELISA); assay type: cell-based; details: 24 hours, brefeldin A 2.5 μg/ml
Description: (§1) HCV-infected Huh-7.5.1 cells were plated on a 6-well plate at a density of 1×10^5 cells/cm^2 and cultured overnight in standard medium. Prior to the beginning of the experiment, the cells were washed 3 times with PBS and cultured with DMEM containing 5% lipoprotein-free FBS. Oleate, Insulin, Naringenin, and Brefeldin A were added at this time as described in the text. Following 24 hours of incubation, the plate was gently agitated to release mechanically bound particles, the media was collected, filtered to remove cellular debris, and stored at −80° C. for further analysis. The attached cells were washed 3 times with PBS, harvested, pelleted and stored at −80° C. for further analysis.
Huh-7.5.1 and primary human hepatocytes secreted ApoB was detected in the media using ALerCHEK, Inc (Portland, Me.) total human ApoB ELISA kit. Media was diluted 1:10 with the specimen diluent, and the assay was carried out according to manufacturer's directions.
HCV-infected Huh-7.5.1 cells were plated T-25 tissue culture flasks at a density of 1×10^5 cells/cm^2 and cultured overnight in standard medium. Prior to silencing, the cells were washed 3 times with PBS and media was replaced with OptiMEM basal medium. SureSilencing shRNA (GFP) plasmids against human ApoB100 as well as shRNA plasmid control (500 ng/ml) were combined with lipofectamine 2000 in OptiMEM and incubated with the cells overnight. SureSilencing shRNA plasmids code for GFP which was used to sort the transfected Huh7.5.1 cells, using FACSAria (BD Biosciences) located at the Partners AIDS Research Center. Transfected cells (10% of the total population) were sorted directly into a 12-well plate and allowed to adhere overnight. Culture media was conditioned by the transfected cells for 24 hours and analyzed as described above.

[2] = system: HCV (JFH-1) secreted by infected Huh-7.5.1 cells; assay: HCV secretion by JFH-1 infected Huh-7.5.1 cells (HCV core antigen ELISA, HCV positive strand RNA qPCR); assay type: cell-based, Hepatitis C virus
Description: The Huh-7.5.1 human hepatoma cell line and a plasmid containing the JFH-1 genome were kindly provided by Dr. Chisari (Scripps Research Institute, CA) and Dr. Wakita (National Institute of Infectious Diseases, Tokyo) respectively. Huh-7.5.1 cells were cultured in DMEM medium supplemented with 10% FBS, 200 units/ml penicillin and […] streptomycin in a 5% CO2-humidified incubator at 37° C. In vitro transcribed genomic JFH-1 RNA was delivered to cells by liposome-mediated transfection as described by Zhong et al. (2005)(8). Infected Huh-7.5.1 cells were passaged every 3 days and used at passage <15. The presence of HCV in these cells and corresponding supernatants were determined by quantitative Polymerase Chain Reaction (qPCR) and immunofluorescence staining. Primary human hepatocytes were purchased from BD Biosciences (San Jose, Calif.) cultured on a collagen-coated 12 well plate in C+H culture media composed of DMEM supplemented with 10% heat-inactivated FBS, 200 U/mL penicillin/streptomycin, 7.5 μg/mL hydrocortisone, 20 ng/mL EGF, 14 ng/mL glucagons and 0.5 U/mL insulin. The media was supplemented with 2% DMSO for long-term culture of the primary cells.
as §1
Huh-7.5.1 secreted HCV core antigen was detected in the media using Wako Chemicals (Cambridge, Mass.) ORTHO HCV antigen ELISA kit. Media was used as is, and the assay was carried out according to manufacturer's directions.
(§2) Virus samples collected in each experiment were filtered with a 0.45 μm filter and a volume of 100 μL for each sample was heated at 95° C. for 45 min. The reverse transcription reaction step was performed on a Mastercycler epgrdientS (Eppendorf) instrument using Omniscript and Sensiscript RT Kits (Qiagen). Real time PCR was performed on a Light Cycler LC-24 (Idaho Technology), using SuperScript™ III Platinum® CellsDirect Two-Step qRT-PCR Kits (Invitrogen) for quantitative PCR. For reverse transcription step, 2 μL of sample without RNA extraction were used. For real time PCR, 1 μL of the reverse transcription reactions was used. All reactions were performed according to the manufacturer's instructions using the primers detailed in Table 1.
However, this experiment was carried out on cells continuously producing the virus. Long-term treatment could potentially have a greater effect. […] This treatment is compared to the current standard-of-care, 1000 i.u. of Interferon α (IFNα). Both treatments lowered HCV RNA to a similar level, 96±5% and 93±5% respectively.

[3] = system: HCV (JFH-1) in Huh-7.5.1 cells; assay: Intracellular HCV RNA and core protein in infected Huh-7.5.1 cells; assay type: cell-based, Hepatitis C virus
Description: as §1, §2
Huh-7.5.1 cells were washed 3 times with PBS and fixed in 4% EM-grade paraformaldehyde for 10 minutes at room temperature. Slides were then washed with PBS and incubated in 100 mmol/L glycine for 15 minutes to saturate reactive groups. Samples were permeabilized for 15 minutes with 0.1% Triton X-100, blocked for 30 minutes with 1% bovine serum albumin and 5% donkey serum at room temperature, and stained with primary antibodies overnight at 4° C. After additional washes with PBS, samples were stained with fluorescently tagged secondary antibodies for 45 minutes at room temperature.

[4] = 400 mg/day oral, hypercholesterolemic patients; cited from earlier work
[5] = 24 hours, brefeldin A 2.5 μg/ml

Compound: insulin: insulin obtained from Eli-Lilly [reference compound]
- infectivity of the cell supernatant (in words) ([1]; supernatant of stimulated infected Huh-7.5.1 cells): decreased
- ApoB secretion (in words) (ApoB): downregulated
- HCV core protein secretion (in words) [2, 5]: downregulated
- intracellular levels of HCV (positive strand) RNA ([3]; 24 hours stimulation): remained unchanged

Compound: IFNα [reference compound]
- inhibition of HCV (RNA) secretion, long-term treatment ([2]; long-term daily treatment of infected Huh7.5.1 cells, naringenin 200 μM, IFNα 1000 i.u.): 93±5%
- HCV replication (intracellular HCV RNA), long-term treatment ([3]; long-term treatment, naringenin 200 μM, IFNα 1000 i.u.): inhibited

Compound: C[C@@H]1O[C@@H](O[C@H]2[C@H](Oc3cc(O)c4c(c3)O[C@H](c3ccc(O)cc3)CC4=O)O[C@H](CO)[C@@H](O)[C@@H]2O)[C@H](O)[C@H](O)[C@H]1O [naringin, reference compound]
- lowering of LDL levels [4]: 17%

Compound: C[C@H]1CCC/C=C/[C@@H]2C[C@H](O)C[C@H]2[C@H](O)/C=C/C(=O)O1 [brefeldin A, reference compound]
- inhibition of infectivity of the cell supernatant ([1]; supernatant after 24 hours stimulation, naringenin 200 μM, brefeldin A 2.5 μg/ml): 89%±10%
- ApoB secretion (in words) (ApoB): blocked
- HCV core protein secretion (in words) [2, 5]: significantly inhibits
- HCV positive strand RNA secretion (in words) [2, 5]: significantly inhibits
